Data published in ChEMBL document CHEMBL3885881, “DrugMatrix”.

Species: Rattus norvegicus
Assay: DrugMatrix - Regimen: Daily Repeat
Assay type: toxicity, organism-based, Sprague-Dawley
Parameters: regimen Daily Repeat, gender Male, age 6-8 weeks
Conditions: in vivo, po, route oral GAVAGE, vehicle 100 % SALINE; for ABSOLUTE BASOPHIL / ABSOLUTE EOSINOPHIL / ABSOLUTE LYMPHOCYTE / ABSOLUTE MONOCYTE / ABSOLUTE SEGMENTED NEUTROPHIL / BASOPHIL / EOSINOPHIL / ERYTHROCYTE COUNT / HEMATOCRIT / HEMOGLOBIN / LEUKOCYTE COUNT / LYMPHOCYTE / MEAN CORPUSCULAR HEMOGLOBIN / MEAN CORPUSCULAR HEMOGLOBIN CONCENTRATION / MEAN CORPUSCULAR VOLUME / MONOCYTE / NEUTROPHIL / NUCLEATED RED BLOOD CELLS / PLATELET COUNT: tissue Blood; for ALANINE AMINOTRANSFERASE / ALBUMIN / ALKALINE PHOSPHATASE / ASPARTATE AMINOTRANSFERASE / BLOOD UREA NITROGEN / CARBON DIOXIDE / CHLORIDE / CHOLESTEROL / CREATINE PHOSPHOKINASE / CREATININE / GLUCOSE / LACTATE DEHYDROGENASE / LIPASE / PHOSPHORUS / POTASSIUM / SODIUM / TOTAL BILIRUBIN / TOTAL PROTEIN / URIC ACID: tissue Plasma
[1] = 0 mg/kg, 72 h, dose level Control, time 3 day
[2] = 0 mg/kg, […], dose level Control, time 7 day
[3] = 10 mg/kg, 72 h, dose level Low, time 3 day

`O=[As][O-].[Na+]` [SODIUM ARSENITE] was tested, and the “ABSOLUTE BASOPHIL” value [1] was 0 CELLS/uL, the “ABSOLUTE EOSINOPHIL” value [1] was 66 CELLS/uL and the “ABSOLUTE LYMPHOCYTE” value [1] was 11922.83 CELLS/uL. The “ABSOLUTE MONOCYTE” value [1] was 401.5 CELLS/uL, the “ABSOLUTE SEGMENTED NEUTROPHIL” value [1] was 1526.33 CELLS/uL and the BASOPHIL [1] was 0%. For the same compound, the EOSINOPHIL [1] was 0.5%, the “ERYTHROCYTE COUNT” value [1] was 5.62 x10E6/uL and the HEMATOCRIT [1] was 37.17%. The HEMOGLOBIN [1] was 13.53 G/DL, the “LEUKOCYTE COUNT” value [1] was 13.92 x10E3/uL and the LYMPHOCYTE [1] was 86.17%. The “MEAN CORPUSCULAR HEMOGLOBIN” value [1] was 24.07 pg, the “MEAN CORPUSCULAR HEMOGLOBIN CONCENTRATION” value [1] was 36.42 G/DL and the “MEAN CORPUSCULAR VOLUME” value [1] was 66.1 fL. The MONOCYTE [1] was 3%, the NEUTROPHIL [1] was 10.33% and the “NUCLEATED RED BLOOD CELLS” value [1] was 0 /100WBC. The “PLATELET COUNT” value [1] was 1107 x10E3/uL, the “ALANINE AMINOTRANSFERASE” value [1] was 45.33 u/L and the ALBUMIN [1] was 4.3 G/DL. For the same compound, the “ALKALINE PHOSPHATASE” value [1] was 321.33 u/L, the “ASPARTATE AMINOTRANSFERASE” value [1] was 77.33 u/L and the “BLOOD UREA NITROGEN” value [1] was 14.33 mg/dL. The “CARBON DIOXIDE” value [1] was 32.33 mmol/L, the CHLORIDE [1] was 99.67 MEQ/L and the CHOLESTEROL [1] was 82.33 mg/dL. The “CREATINE PHOSPHOKINASE” value [1] was 205.5 u/L, the CREATININE [1] was 0.19 mg/dL and the GLUCOSE [1] was 150.83 mg/dL. For the same compound, the “LACTATE DEHYDROGENASE” value [1] was 88.17 u/L, the LIPASE [1] was 10.83 u/L and the PHOSPHORUS [1] was 10.9 mg/dL. The POTASSIUM [1] was 5.83 MEQ/L, the SODIUM [1] was 145.15 MEQ/L and the “TOTAL BILIRUBIN” value [1] was 0.12 mg/dL. The “TOTAL PROTEIN” value [1] was 6.22 G/DL, the “URIC ACID” value [1] was 1 mg/dL and the “ABSOLUTE BASOPHIL” value [2] was 0 CELLS/uL. For the same compound, the “ABSOLUTE EOSINOPHIL” value [2] was 22 CELLS/uL, the “ABSOLUTE LYMPHOCYTE” value [2] was 11105.17 CELLS/uL and the “ABSOLUTE MONOCYTE” value [2] was 258.17 CELLS/uL. For the same compound, the “ABSOLUTE SEGMENTED NEUTROPHIL” value [2] was 881.33 CELLS/uL, the BASOPHIL [2] was 0% and the EOSINOPHIL [2] was 0.17%. For the same compound, the “ERYTHROCYTE COUNT” value [2] was 5.29 x10E6/uL, the HEMATOCRIT [2] was 34.03% and the HEMOGLOBIN [2] was 13.67 G/DL. The “LEUKOCYTE COUNT” value [2] was 12.27 x10E3/uL, the LYMPHOCYTE [2] was 90.83% and the “MEAN CORPUSCULAR HEMOGLOBIN” value [2] was 25.9 pg. For the same compound, the “MEAN CORPUSCULAR HEMOGLOBIN CONCENTRATION” value [2] was 40.18 G/DL, the “MEAN CORPUSCULAR VOLUME” value [2] was 64.42 fL and the MONOCYTE [2] was 2.17%. The NEUTROPHIL [2] was 6.83%, the “NUCLEATED RED BLOOD CELLS” value [2] was 0 /100WBC and the “PLATELET COUNT” value [2] was 1159.83 x10E3/uL. The “ALANINE AMINOTRANSFERASE” value [2] was 45.83 u/L, the ALBUMIN [2] was 4.1 G/DL and the “ALKALINE PHOSPHATASE” value [2] was 240 u/L. The “ASPARTATE AMINOTRANSFERASE” value [2] was 88.67 u/L, the “BLOOD UREA NITROGEN” value [2] was 13.67 mg/dL and the “CARBON DIOXIDE” value [2] was 31.83 mmol/L. The CHLORIDE [2] was 96.83 MEQ/L, the CHOLESTEROL [2] was 71.17 mg/dL and the “CREATINE PHOSPHOKINASE” value [2] was 202.5 u/L. For the same compound, the CREATININE [2] was 0.22 mg/dL, the GLUCOSE [2] was 132.67 mg/dL and the “LACTATE DEHYDROGENASE” value [2] was 107.17 u/L. For the same compound, the LIPASE [2] was 10.5 u/L, the PHOSPHORUS [2] was 10.47 mg/dL and the POTASSIUM [2] was 6.23 MEQ/L. For the same compound, the SODIUM [2] was 140.73 MEQ/L, the “TOTAL BILIRUBIN” value [2] was 0.12 mg/dL and the “TOTAL PROTEIN” value [2] was 6.18 G/DL. The “URIC ACID” value [2] was 0.87 mg/dL, the “ABSOLUTE BASOPHIL” value [3] was 0 CELLS/uL and the “ABSOLUTE EOSINOPHIL” value [3] was 54.67 CELLS/uL. For the same compound, the “ABSOLUTE LYMPHOCYTE” value [3] was 10489.83 CELLS/uL, the “ABSOLUTE MONOCYTE” value [3] was 135 CELLS/uL and the “ABSOLUTE SEGMENTED NEUTROPHIL” value [3] was 1470.5 CELLS/uL. For the same compound, the BASOPHIL [3] was 0%, the EOSINOPHIL [3] was 0.5% and the “ERYTHROCYTE COUNT” value [3] was 5.25 x10E6/uL. The HEMATOCRIT [3] was 34.42%, the HEMOGLOBIN [3] was 12.32 G/DL and the “LEUKOCYTE COUNT” value [3] was 12.15 x10E3/uL. The LYMPHOCYTE [3] was 86.33%, the “MEAN CORPUSCULAR HEMOGLOBIN” value [3] was 23.48 pg and the “MEAN CORPUSCULAR HEMOGLOBIN CONCENTRATION” value [3] was 35.82 G/DL. For the same compound, the “MEAN CORPUSCULAR VOLUME” value [3] was 65.58 fL, the MONOCYTE [3] was 1.17% and the NEUTROPHIL [3] was 12%. For the same compound, the “NUCLEATED RED BLOOD CELLS” value [3] was 0.17 /100WBC, the “PLATELET COUNT” value [3] was 1089.17 x10E3/uL and the “ALANINE AMINOTRANSFERASE” value [3] was 43.5 u/L. For the same compound, the ALBUMIN [3] was 4.08 G/DL, the “ALKALINE PHOSPHATASE” value [3] was 226.5 u/L and the “ASPARTATE AMINOTRANSFERASE” value [3] was 76.83 u/L. For the same compound, the “BLOOD UREA NITROGEN” value [3] was 10.5 mg/dL, the “CARBON DIOXIDE” value [3] was 25.83 mmol/L and the CHLORIDE [3] was 100.17 MEQ/L. The CHOLESTEROL [3] was 72 mg/dL, the “CREATINE PHOSPHOKINASE” value [3] was 296.17 u/L and the CREATININE [3] was 0.2 mg/dL. The GLUCOSE [3] was 151.5 mg/dL, the “LACTATE DEHYDROGENASE” value [3] was 177.33 u/L and the LIPASE [3] was 10.33 u/L. For the same compound, the PHOSPHORUS [3] was 11.43 mg/dL, the POTASSIUM [3] was 5.33 MEQ/L and the SODIUM [3] was 142.73 MEQ/L. The “TOTAL BILIRUBIN” value [3] was 0.15 mg/dL, the “TOTAL PROTEIN” value [3] was 5.93 G/DL and the “URIC ACID” value [3] was 1 mg/dL.
